Laboratory results as given in patent publication US12377074B2, “Treatment for Wolfram syndrome” (YALE UNIVERSITY, priority 2019, dated 2025).
Entries after “also recorded” stand apart in the source; their conditions may differ.

Assays:
WFS1-deficient cells [1] = conditions: cited from earlier work
[2] = cited from earlier work
WFS1-deficient cells [3] = conditions: cited from earlier work; remark: listed apart in the source
[4] = tested on: calpain activity in INS-1 cells; conditions: siRNA against WFS1, 10 μM dantrolene 48 h, then 0.5 μM thapsigargin 6 h, cleaved spectrin relative to GAPDH; cited from earlier work
WFS1-WT INS1 cells [5] = assay: Glucose-stimulated insulin secretion (insulin ELISA), WFS1-WT cells; type: cell-based, rat; conditions: 10 μM drug, 24 h
Protocol: (§1) For glucose-stimulated insulin secretion studies, INS1 cells were plated on 6-well plates at a density of 6×10^5 cells per well. After 24 hours, cells were incubated with drugs for another 24 hours. Two days after plating, the insulin ELISA assays were performed following a previously published protocol. In detail, preincubating cells in DMEM-base (Sigma) supplemented with 2.5 mM glucose for 1.5 h was followed by a 45 min incubation in DMEM-base with either 2.5 mM glucose for basal secretion or 9 mM glucose for stimulated secretion as indicated. 200 μl of supernatant were collected for analysis of insulin concentration using the Rat High Range ELISA kit (80-INSRTH-E01, ALPCO). Cells were washed with ice cold PBS and lysed in 1 mL 0.1% Triton X-100. Insulin levels were normalized to total protein measured by Micro BCA protein assay kit (23235, Thermo Fisher Scientific).

WFS1-KO INS1 cells [6] = assay: Resting cytosolic calcium imaging (Fura-2-AM), WFS1-KO cells; type: cell-based, rat; conditions: 10 μM, 24 h treatment
Protocol: (§2) 2×10^5 cells were plated on each coverslip 2 days before imaging in INS1 medium without G418. HEPES-buffered saline (140 mM NaCl. 1.13 mM MgCl2, 4.7 mM KCL, 2 mM CaCl2, 10 mM D-glucose, and 10 mM HEPES, adjusted to pH 7.4 with NaOH) was used to prepare calcium dye solution and during imaging. In calcium-free HEPES buffer, CaCl2 was replaced with MgCl2 and 0.1 mM EGTA was added to chelate calcium. Fura-2-AM dye powder (Thermo Fisher) was dissolved to 4 μM in calcium-containing HEPES buffer supplemented with 0.03% Pluronic acid (Thermo Fisher). On the day of imaging, each coverslip was incubated in dye solution for 45 min in the dark at room temperature. Each coverslip was then washed 3 times in HEPES-buffered saline solution before calcium imaging began. Calcium measurements were performed with a Hammamatsu Orca R2 camera attached to a Zeiss microscope with a Sutter Lambda DG4 for excitation ratio imaging. Cells were imaged using sequential excitation at 340/380 nm (Fura-2-AM). Images were acquired with emission bandwidth of 501 to 550 nm every second. The raw 340 and 380 signals for each cell were subtracted by corresponding background signal before a 340/380 ratio was calculated. Max amplitude and area under the curve were calculated using PRISM Statistical Software 8. Rate of rise was quantified as the gradient between 25% and 75% maximum amplitude. […]

WFS1-WT INS1 cells [7] = assay: Resting cytosolic calcium imaging (Fura-2-AM), WFS1-WT cells; type: cell-based, rat; conditions: 10 μM, 24 h treatment
Protocol: as §2

WFS1-WT INS1 cells [8] = assay: CellTiter-Glo cell viability assay, WFS1-WT cells; type: cell-based, rat; conditions: 30 mM additional glucose (30G) 48 h, normalized to CTRL, 10 μM in FIG. 19C
Protocol: (§3) CellTiter-Glo™ (CTG) assay (Promega) was used to quantify ATP-dependent bioluminescence as an indicator of cell viability. To assess cell viability, INS1 cells were plated in white 96-well plates (Cat. 07-200-628, Fisher Scientific) at a density of 2×10^3 cells per well and treated the following day with high glucose and/or the indicated drugs for 48 hours before imaging. After treatment was completed, 100 μL of CTG solution was added to each well and 20 minutes later, reading was performed using a Tecan Infinite M1000 Pro microplate reader using the following setting: 5 s orbital shaking (3 mm, 216 rpm), followed by imaging in luminescence mode with 500 ms integration time.
(§4) Because intracellular calcium is an important determinant of cell viability, we measured cell viability in WFS1-WT and WFS1-KO cells. A luminescent, ATP-based assay was used. […] Following hyperglycemia (additional 30 mM glucose for 48 h), we observed an approximately 40% reduction in cell viability in WFS1-KO cells, whereas cell viability in WFS1-WT cells was only 15% lower than under control conditions (FIG. 19C). WFS1-KO cells could be rescued by WFS1 re-expression (SI Appendix, FIG. S5A). These findings are supported by previous reports showing that WFS1 deficiency causes progressive loss of pancreatic β-cells.

WFS1-OE INS1 cells = assay: CellTiter-Glo cell viability assay, WFS1-OE cells; type: cell-based, rat; conditions: 30 mM additional glucose (30G) 48 h
Protocol: as §3, §4

WFS1-KO INS1 cells [9] = assay: CellTiter-Glo cell viability assay, WFS1-KO cells; type: cell-based, rat; conditions: for cell viability after hyperglycemia / cell viability at baseline: WFS1-KO cells; for cell viability after hyperglycemia: 30 mM additional glucose (30G) 48 h, normalized to CTRL, 10 μM in FIG. 19C; for cell viability at baseline: no additional glucose
Protocol: CellTiter-Glo™ (CTG) assay (Promega) was used to quantify ATP-dependent bioluminescence as an indicator of cell viability. […] After treatment was completed, 100 μL of CTG solution was added to each well and 20 minutes later, reading was performed using a Tecan Infinite M1000 Pro microplate reader using the following setting: 5 s orbital shaking (3 mm, 216 rpm), followed by imaging in luminescence mode with 500 ms integration time.
Because intracellular calcium is an important determinant of cell viability, we measured cell viability in WFS1-WT and WFS1-KO cells. A luminescent, ATP-based assay was used.

WFS1-KO INS1 cells [10] = assay: Glucose-stimulated insulin secretion (insulin ELISA), WFS1-KO cells; type: cell-based, rat; conditions: 10 μM drug; for glucose-stimulated insulin secretion: 9 mM glucose stimulation; for difference in glucose-stimulated insulin secretion between WFS1-WT and WFS1-KO cells: after stimulation with 9 mM glucose
Protocol: as §1

WFS1 KO INS-1 cells = assay: Cell survival after high glucose, WFS1 KO INS-1 cells (first set); type: cell-based, rat; conditions: for cell survival after treatment with 31 mM glucose for 48 hours (glucose induced cell death): 31 mM glucose 48 h, survival normalized to % survival at 1 mM glucose
Protocol: (§5) Survival is normalized to % survival at 1 mM glucose.
The concentration range for protection from cell death by high glucose in WFS1 KO cells is similar.

INS-1 cells (WT) = assay: Cell survival after high glucose, WT INS-1 cells (first set); type: cell-based, rat; conditions: for cell survival after treatment with 31 mM glucose for 48 hours (glucose induced cell death): survival normalized to % survival at 1 mM glucose
Protocol: as §5, §5

SMILES	resting cytosolic calcium (WFS1-KO INS1 cells [6])	resting cytosolic calcium (WFS1-WT INS1 cells [7])	cell viability after hyperglycemia (WFS1-WT INS1 cells [8])	cell viability after hyperglycemia (WFS1-OE INS1 cells)	cell viability after hyperglycemia (WFS1-KO INS1 cells [9])	cell viability at baseline (WFS1-KO INS1 cells [9])	glucose-stimulated insulin secretion (WFS1-KO INS1 cells [10]; WFS1-KO cells, 24 h)	difference in glucose-stimulated insulin secretion between WFS1-WT and WFS1-KO cells (WFS1-KO INS1 cells [10])	cell survival after treatment with 31 mM glucose for 48 hours (glucose induced cell death) (WFS1 KO INS-1 cells)	cell survival after treatment with 31 mM glucose for 48 hours (glucose induced cell death) (INS-1 cells (WT); 31 mM glucose 48 h)	also measured
O=C1CN(/N=C/c2ccc(-c3ccc([N+](=O)[O-])cc3)o2)C(O)=N1 [Dantrolene, dantrolene]											cytosolic calcium levels (WFS1-deficient cells [1]): restored; side effects of prolonged use [2]: liver toxicity; apoptosis (WFS1-deficient cells [3]): suppressed; calpain activity [4]: reduced
CCC(NC(=O)OCc1ccccc1)C(=O)C(=O)NCCCN1CCOCC1 (centres unmarked) [calpain inhibitor XI]	lowered the resting cytosolic calcium in WFS1-KO cells to the level of WFS1-WT cells; also recorded: reversed elevated cytosolic calcium	without affecting	fully rescued cell viability back to baseline	fully rescued cell viability back to baseline	fully rescued cell viability back to baseline; also recorded: rescued cell viability back to normal level	did not significantly affect cell viability	reversed the impairment; also recorded: can be reversed	ameliorated the difference			insulin secretion (WFS1-WT INS1 cells [5]): did not affect; cell viability after hyperglycemia (WFS1-WT INS1 cells [8]; listed as C.I.): rescued; high glucose-induced loss of cell viability, dose dependence (WFS1-KO INS1 cells [9]; WFS1-KO cells (clone #1), high glucose, dose series): reversed glucose toxicity-induced loss of cell viability in a dose-dependent manner; also recorded: dose-dependently reversed; cell viability after hyperglycemia (WFS1-KO INS1 cells [9]; listed as C.I.): rescued
CN(C)CCCN1c2ccccc2Sc2ccc(Cl)cc21 [chlorpromazine]									no effect	no effect	cell survival after treatment with 31 mM glucose for 48 hours (glucose induced cell death) (WFS1 KO INS-1 cells; listed as chlorprmazine): no effect on survival; cell survival after treatment with 31 mM glucose for 48 hours (glucose induced cell death) (INS-1 cells (WT); 31 mM glucose 48 h, listed as chlorprmazine): no effect on survival
CC(C)C(=O)c1c(C(C)C)nn2ccccc12 [ibudilast]	lowered the resting cytosolic calcium in WFS1-KO cells to the level of WFS1-WT cells; also recorded: reversed elevated cytosolic calcium	without affecting	fully rescued cell viability back to baseline	fully rescued cell viability back to baseline	fully rescued cell viability back to baseline; also recorded: rescued cell viability back to normal level	did not significantly affect cell viability; also recorded: slightly raised cell viability	reversed the impairment; also recorded: can be reversed	ameliorated the difference	rescued viability	rescued viability; also recorded: did protect cell survival	insulin secretion at baseline (WFS1-WT INS1 cells [5]; 2.5 mM glucose): enhanced insulin secretion at baseline; cell viability after hyperglycemia (WFS1-WT INS1 cells [8]; listed as IBU): rescued; concentration range for protection from cell death by high glucose, compared with WT (WFS1 KO INS-1 cells; high glucose): similar; cell viability after hyperglycemia (WFS1-KO INS1 cells [9]; listed as IBU): rescued; insulin secretion at baseline (WFS1-KO INS1 cells [10]; WFS1-KO cells, 2.5 mM glucose, 24 h): enhanced insulin secretion at baseline; cell survival at low (normal) glucose (INS-1 cells (WT); 1 mM glucose): no effect; also recorded: does not alter cell survival; concentration giving nearly full recovery/protection of survival (INS-1 cells (WT); 31 mM glucose 48 h): 1 µM; EC50 (INS-1 cells (WT); 31 mM glucose 48 h, read-out: half max effect on survival): ~300 nM
[Li] [lithium]									no effect	no effect	
CCCC(CCC)C(=O)O [valproic acid]									no effect	no effect	cell survival after treatment with 31 mM glucose for 48 hours (glucose induced cell death) (WFS1 KO INS-1 cells; listed as valproate): no effect on survival; cell survival after treatment with 31 mM glucose for 48 hours (glucose induced cell death) (INS-1 cells (WT); 31 mM glucose 48 h, listed as valproate): no effect on survival
